# Key:
# [1] = tested on: NB4 cells and Nalm-6 cells; details: APL-derived NB4 cells and ALL-derived Nalm-6 cells; cited from earlier work
# [2] = tested on: human lung cancer cell lines (H23 and H292); details: cited from earlier work
# [3] = tested on: c-MYC; assay: In Vitro Translation Dose-Response Curves (In Vitro Multiple Point Translation Screening Assay); format: biochemical; details: IVT dose response curve
# Description: HeLa S3 cell Preparation. HeLa S3 cells were grown essentially as described in Mikami 2010. Frozen aliquots of banked HeLa cells (ATCC #CCL-2.2) were thawed and diluted into agitated suspension culture in CD293 medium supplemented with 10% HI FBS, 1× GlutaMAX, and 1× Pen/Strep. Cells were expanded in suspension over 10 passages to inoculate 3×20 L wave bag bioreactors and cultured for approximately 48 h to a final density of 1.81×10^6 viable cells per mL. Cells were pelleted by centrifugation at 2500 RCF for 15 min at 4° C. Two 1 L pellets were combined in 32 sets and re-pelleted in 50 ml conical tubes, resulting in 32×10 mL cell pellets weighing approximately 10 g each. Final pellets were snap frozen in liquid nitrogen and stored at −80° C. (cell culture, harvesting, and cryo-preservation completed at LakePharma). Cell pellets were subsequently thawed at RT, resuspended in 15 mL wash buffer (35 mM HEPES-KOH, pH 7.5, 140 mM NaCl, and 11 mM glucose), then re-pelleted by centrifugation at 2500 RCF for 10 min at 4° C. The supernatant was discarded and the wash step repeated 2×. The pellets were resuspended each pellet in 10 mL in hypertonic extraction buffer (20 mM HEPES-KOH, pH 7.5, 45 mM potassium acetate, 45 mM KCl, 1.8 mM magnesium acetate, and 1 mM TCEP added directly before use). The cell suspension was transferred to a cell disruption vessel (Parr Instrument Company, model 4636, 1850 mL capacity) and incubated for 15 min on ice, then sealed under nitrogen (200 PSI) for 1.5 h. The cell homogenates were released through a needle valve and collected on ice, then diluted with 1/29 volume high potassium buffer (20 mM HEPES-KOH, pH 7.5, 945 mM potassium acetate, 945 mM KCl, 1.8 mM magnesium acetate, and 1 mM TCEP). The cell homogenates were then clarified by centrifugation at 2500 RCF for 10 min at 4° C. and the supernatant collected. The clarification step was repeated 3×. The resulting cell extracts (675 mL, 2.5 mg/mL total protein) were aliquoted and flash frozen in liquid nitrogen and stored at −80° C. until use.
# Translation reactions were incubated for 20 min at 30° C. Nanoluciferase luminescence was measured by combining 2 μL of IVT reaction with 20 μL of prepared reagent from the Nanoglo assay kit (Promega). A negative control of 0.5% DMSO and positive control of 50 μM puromycin were used to define to assay window.
# Dose response curve IVTs were performed similar to the single point IVT screening with the following changes. The desired concentration curves were plated into 384 well plates from DMSO stocks using a Tecan D300e dispenser. […] After reaction incubation and luminescence measurement, dose-response curves were fit to the data using Prism (Graphpad) or Collaborative Drug Discovery analysis programs.
# [4] = tested on: c-MYC; assay: Cellular c-MYC Alpha Screen; format: cell-based; details: Homo sapiens; c-MYC alpha screen dose response, HCT-116 reporter cells, 24 h; read-out: Geomean pIC50 (converted)
# Description: HCT-116 Firefly-luciferase reporter cells (BPS bioscience) were seeded in 96-well tissue-culture treated sterile plates (Greiner Bio-One) at 7.5e4 cells/mL in 100 μL complete growth media (McCoy's 5A+10% FBS, +1% Pen-Strep, +1% G418). Cells were incubated at 37° C. with 5% CO2 for 24 h then treated with 3× compound solution in 50 μL complete growth media for a final volume of 150 μL per well with 0.2% DMSO. After 24 h incubation at 37° C. with 5% CO2, plates were allowed to equilibrate to RT for 20 min; the media was then aspirated, and the plate washed once with 200 μL 1×PBS. Cells were then lysed by addition of 1× Alpha Screen lysis buffer (50 μL) from the Perkin Elmer alpha Screen c-MYC detection kit (Part number 6760611C). The lysate is then transferred to ice and advanced to the Alpha Screen detection assay or sealed with adhesive foil and stored at −80° C. for up to 2 weeks before use.
# The alpha screen detection assay was then performed as per the vendors instructions. Briefly the acceptor bead mix was prepared as per vendors instructions. 30 ul of the cell lysate is transferred to a 96-well white assay plate. 15 ul of the acceptor mix was added to each well and incubated in the dark for at least one hour. Then the donor bead mix was prepared as per vendors instructions and 15 ul of this was added to the assay plate. The plate was then incubated at RT for one hour in the dark. The plate was then read in the SpectraMax i3x plate reader (Molecular Devices) using the alpha screen module (excitation wavelength 680 emission wavelength 615) and analyzed using GraphPad Prism 9 software.
# [5] = tested on: HCT-116 Firefly-luciferase reporter cells; assay: Cellular c-MYC Reporter Assay; format: cell-based; details: Homo sapiens, HCT-116 Firefly-luciferase reporter cells, 24 h; for EC50: HCT-116, 24 h, read-out: Geomean pEC50 (converted)
# How it was run: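 Compound exposure lasted 24 h at 37 °C, 5% CO2, in complete McCoy's 5A medium containing 0.2% DMSO, beginning 4–6 h post-seeding (5e4 cells/mL). Firefly luciferase signal measured by luminescence after 10 min ONE-Glo development at room temperature.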
# [6] = tested on: prostate cancer cell lines PC-3 and 22 Rv1; details: cited from earlier work
# [7] = tested on: murine models of MM; details: three murine models; cited from earlier work
# [8] = tested on: tumor growth; details: mice; cited from earlier work
# [9] = tested on: MM cell; details: in vitro; cited from earlier work
# [10] = tested on: xenografts of human MM; details: in vivo; cited from earlier work
compound,measurement,setting,value
CCc1ccc(/C=C2/SC(=S)NC2=O)cc1 [Compound 10058-F4],viability of leukemia cells,[1],reduced viability
"CCc1ccc(O)c(CN(C)Cc2cc(CC)ccc2O)c1 [EMD, N, N-bis(5-ethyl-2-hydroxybenzyl) methylamine]",cytotoxicity toward human lung cancer cell lines,[2],strong cytotoxicity
"Cc1cccc2ccnc(N(C(=O)c3ccc(-n4nnc5cccnc54)cc3)[C@@H]3CCCNC3)c12 [Example 50, (R)-4-(3H-[1,2,3]triazolo[4,5-b]pyridin-3-yl)-N-(8-methylisoquinolin-1-yl)-N-(piperidin-3-yl)benzamide]",Geomean pIC50,[3],6.0 (n = 4)
same,IC50,[4],158 nM
"Cc1cccc2ccnc(N(C(=O)c3ccc(Nc4ncccn4)cc3)[C@@H]3CCCNC3)c12 [Example 51, (R)-N-(8-methylisoquinolin-1-yl)-N-(piperidin-3-yl)-4-(pyrimidin-2-ylamino)benzamide]",Geomean pIC50,[3],4.8 (n = 2)
same,IC50,[4],1000 nM
same,EC50,[5],251 nM
"Cc1cccc2ccnc(N(C(=O)c3ccc(-n4ccnn4)cc3)[C@@H]3CCCNC3)c12 [Example 54, (R)-N-(8-methylisoquinolin-1-yl)-N-(piperidin-3-yl)-4-(1H-1,2,3-triazol-1-yl)benzamide]",Geomean pIC50,[3],4.70 (n = 2)
"Cc1cccc2ccnc(N(C(=O)c3ccc(-n4c(C)nc5ccccc54)cc3)[C@@H]3CCCNC3)c12 [Example 57, (R)-4-(2-methyl-1H-benzo[d]imidazol-1-yl)-N-(8-methylisoquinolin-1-yl)-N-(piperidin-3-yl)benzamide]",Geomean pIC50,[3],4.6 (n = 2)
same,EC50,[5],257 nM
"Cc1cc(C2CCN(C(=O)N(c3nccc4cccc(C)c34)[C@@H]3CCCNC3)CC2)on1 [Example 243, (R)—N-(8-methylisoquinolin-1-yl)-4-(3-methylisoxazol-5-yl)-N-(piperidin-3-yl)piperidine-1-carboxamide]",IC50,[4],398 nM
same,IC50,"[5]; untitled table following Table 8a, read-out: pIC50 (converted)",525 nM
C=CCc1ccc(O)c(-c2ccc(O)c(CC=C)c2)c1 [Honokiol],anti-cancer activity against prostate cancer cell lines,[6],significant anti-cancer activity
same,levels of total and/or phosphorylated c-MYC protein and its mRNA expression,[6],marked decrease
Cc1sc2c(c1C)C(c1ccc(Cl)cc1)=N[C@@H](CC(=O)OC(C)(C)C)c1nnc(C)n1-2 [JQ1],efficacy in murine models of MM,[7],efficacious in three murine models of MM
Cn1nc(C(F)(F)F)cc1-c1ccc(OCc2ccc(Cl)cc2)c(-c2cc(C(F)(F)F)cc(C(F)(F)F)c2)c1O [MYCi361],in vivo tumor growth,[8],suppressed in vivo tumor growth in mice
O=C(c1cc(Cc2n[nH]c(=O)c3ccccc23)ccc1F)N1CCN(C(=O)C2CC2)CC1 [olaparib],MM cell viability,[9],impaired MM cell viability in vitro
same,efficacy against xenografts of human MM,[10],effective against in vivo xenografts of human MM

# — patent publication US20240400555A1 (Initial Therapeutics, Inc., priority 2023, published 2024)
